Assay results reported in publication PMC6271298, “Pharmacophore Generation from a Drug-like Core Molecule Surrounded by a Library Peptide via the 10BASEd-T on Bacteriophage T7” (Molecules, 2014).

Tested on: Sal-conjugated peptide-streptavidin complex
Experiment: Competitive binding assay with biotin (fluorescence polarization)
Conditions: various concentrations of biotin; 20 nM peptide (4 pmol) and 15 μM streptavidin (3 nmol); 50 mM Tris-HCl, pH 8.0, 150 mM NaCl, 1 mM TCEP-NaOH
Method: (B) Competitive binding assay. Biotin as a competitor was mixed with the Sal-conjugated peptide-streptavidin complex.
Fluorescence polarization was measured with a HYBRID-3000ES (Photoscience, Tokyo, Japan) equipped with appropriate filters (Ex. 480 nm and Em. 535/40 nm). The Sal-conjugated fluorescent peptide (4 pmol) was incubated with various concentrations of streptavidin, NeutrAvidin, or bovine serum albumin (BSA) in tris-buffered saline (50 mM Tris-HCl, pH 8.0, 150 mM NaCl) supplemented with 1 mM TCEP-NaOH at 30 °C. Concentration of the fluorescent peptide was determined by absorption coefficient at 495 nm. NeutrAvidin® and BSA were purchased from Thermo Scientific and Nacalai tesque, respectively. Concentrations of streptavidin and NeutrAvidin were determined by absorption coefficient at 280 nm. Concentration of BSA was determined by Bradford protein assay (Bio-Rad). Klotz plot was generated by GraphPad Prism software 6.0 (GraphPad Software, San Diego, CA, USA), and the sigmoid curve was fitted with non-linear least squares analysis to obtain the dissociation constant. […] For the competitive binding assay, various concentrations of biotin were added to the solution containing Sal-conjugated peptide-streptavidin complex (4 pmol of the peptide and 3 nmol of streptavidin; 20 nM and 15 μM, respectively). Biotin was purchased from New England Biolabs (Ipswich, MA, USA).

O=C(O)CCCC[C@@H]1SC[C@@H]2NC(=O)N[C@@H]21 [biotin] was tested, and the “disruption of Sal-conjugated peptide-streptavidin interaction by biotin” value was “fully disrupted”.
